Patent US20250163059A1, “HETEROCYCLIC KINASE INHIBITORS” (Incyte Corporation, priority 2023, published 2025)

Columns and labels:
[1] = target: T1, pseudo-kinase domain (JH2) of human V617F mutant JAK2 (Homo sapiens, UniProt O60674, F794H/V617F/W659A/W777A); experiment: JAK2 LanthaScreen JH2-V617F Binding Assay; details: 50 nM Fluorescent JAK2-JH2 Tracer, 1 hour at 25° C., read-out: JH2 BIND V617F
T1 construct: pseudo-kinase domain (JH2, amino-acids 536-812 with 3 surface mutations W659A, W777A, F794H); purchased BPS Bioscience 79498; host or cells: baculovirus expression system
Description: Example B. JAK2 LanthaScreen JH2-V617F Binding Assay
JAK2 JH2-V617F binding assay utilizes pseudo-kinase domain (JH2, amino-acids 536-812 with 3 surface mutations W659A, W777A, F794H) of human V617F mutant JAK2 expressed as C-terminal His-Avi-tagged, biotinylated protein in a baculovirus expression system (BPS Bioscience, Catalog #79498). The assay was conducted in black 384-well polystyrene plates in a final reaction volume of 20 μL. JAK2 JH2-V617F (0.26 nM) was incubated with compounds (100 nL serially diluted in DMSO) in the presence of 50 nM Fluorescent JAK2-JH2 Tracer (MedChem Express Catalog #HY-102055) and 0.25 nM Streptavidin-Tb cryptate (Cisbio Part #610SATLB) in assay buffer (50 mM Tris, pH=7.5, 10 mM MgCl2, 0.01% Brij-35, 0.1% BSA, 1 mM EGTA, 5% Glycerol and 5 mM DTT). Non-specific binding was accessed in the presence of 2 mM ATP. After incubation for 1 hour at 25° C., LanthaScreen signals were read on a PHERAstar FS plate reader (BMG LABTECH). Data was analyzed with IDBS XLfit and GraphPad Prism 5.0 software using a four parameter dose response curve to determine IC50 for each compound.

[2] = target: T2, catalytic domain (JH1) of JAK2 protein (Homo sapiens, UniProt O60674); experiment: JAK2 (JH1) Enzymatic Assay at ATP=Km (30 μM), TR-FRET; assay type: biochemical; details: 30 μM ATP (=Km), 60 min at 25° C., read-out: V617F ENZ 30 μM
T2 construct: phosphorylated on the tyrosine residue by catalytic domain (JH1) of JAK2 protein; purchased BPS 40450
Description: Example A. JAK2 (JH1) Enzymatic Assay at ATP=Km (30 μM)
Inhibitor potency was determined in TR-FRET assay, which measures HTRF signal generated as a result of Eu-labeled anti-phosphotyrosine antibody binding to Biotin-labeled peptide, phosphorylated on the tyrosine residue by catalytic domain (JH1) of JAK2 protein in the presence of ATP-Mg and Allophycocyanin-streptavidin (APC-SA). JH1 domain of JAK2 protein was purchased from BPS (#40450), Eu-W1204-labeled Anti-Phosphotyrosine Antibody (PY-20) and SureLight Allophycocyanin-streptavidin were purchased from PerkinElmer (#AD0067 and #AD0201). Peptide Biot-EQEDEPEGDYFEWLEES-amide (SEQ ID NO.: 1) was purchased from Quality Controlled Biochemicals, MA (Q307-166). Assay buffer consisted of 50 mM Tris, pH=7.5, 10 mM MgCl2, 0.01% Brij-35, 0.1% BSA, 1 mM EGTA, 5% Glycerol and 5 mM DTT. To assess the inhibition of the enzymatic activity, compound was serially diluted in DMSO and a volume of 0.1 μL was transferred to the wells of a black regular volume 384-well plate (Greiner #781076) using Echo Liquid Handler (Labcyte Inc.). Positive and Negative control wells contained 0.1 μL of DMSO.
Enzyme (catalytic domain JH1 of JAK2) was diluted in assay buffer, and the Multidrop Combi liquid handler (Thermo Scientific) was used to dispense 10 μL to each well (except positive control wells, to which 10 μL of assay buffer were dispensed instead of protein).
Plate was centrifuged and reaction was started by addition of 10 μL of substrate solution containing biotinylated peptide and ATP to all wells. Plate was again centrifuged and enzymatic reaction was allowed to proceed for 60 min. at 25° C. Final concentrations in the assay were as follows: 0.02 nM protein, 30 uM ATP, 0.5 uM biotinylated peptide. Reaction was stopped by addition of 10 μL of solution, containing 45 mM EDTA, 144 nM APC/225 nM Streptavidin, and 4.5 nM Eu-Ab in detection buffer: 50 mM Tris, pH=7.8, 150 mM NaCl, 0.5 mg/ml BSA.
Plate was centrifuged and incubated for 30 min. at room temperature. HTRF signal was measured on PHERAstar plate reader instrument (BMG Labtech) with excitation at 337 nm and emissions at 620 nm and 665 nm. Data analysis tools integrated in Genedata Screener software were used to analyze the results. Raw data was normalized to percent of vehicle (DMSO) Negative control, after subtracting no-enzyme Positive inhibitor control. The IC50 values were derived by fitting the data to a four parameter logistic equation producing a sigmoidal dose-response curve using the following equation: Y=Bottom+(Top−Bottom)/(1+10^((Log IC50−X)*Hill slope)) where X is the logarithm of inhibitor concentration and Y is the response.

T2 sequence (O60674 849-1124 limits assumed): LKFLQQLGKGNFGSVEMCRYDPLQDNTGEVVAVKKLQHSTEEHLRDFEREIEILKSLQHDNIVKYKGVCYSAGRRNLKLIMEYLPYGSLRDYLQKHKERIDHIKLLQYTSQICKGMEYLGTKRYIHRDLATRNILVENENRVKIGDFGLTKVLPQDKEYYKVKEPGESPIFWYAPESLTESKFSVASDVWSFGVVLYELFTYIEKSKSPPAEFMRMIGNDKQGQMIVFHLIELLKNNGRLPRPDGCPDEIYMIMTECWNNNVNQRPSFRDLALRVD
T1 sequence (O60674 536-812 V617F/W659A/W777A/F794H): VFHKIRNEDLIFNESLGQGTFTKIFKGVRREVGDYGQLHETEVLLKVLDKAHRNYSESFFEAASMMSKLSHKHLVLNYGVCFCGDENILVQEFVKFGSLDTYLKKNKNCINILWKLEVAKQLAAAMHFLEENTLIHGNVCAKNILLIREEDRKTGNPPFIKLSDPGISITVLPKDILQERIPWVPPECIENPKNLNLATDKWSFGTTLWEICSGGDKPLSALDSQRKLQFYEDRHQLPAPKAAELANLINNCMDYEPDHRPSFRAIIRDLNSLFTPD

Compound | IC50 [1] [nM] | IC50 [2] [nM]
CNc1ncc(-c2cccc(-c3cnn(C(C)C(=O)O)c3)c2OC)c2cc(NC(=O)C3CC3)ncc12 (stereo not drawn) [Example 10, 2-(4-(3-(6-(Cyclopropanecarboxamido)-1-(methylamino)-2,7-naphthyridin-4-yl)-2-methoxyphenyl)-1H-pyrazol-1-yl)propanoic acid] | 10 to 100 | > 1000
CNc1ncc(-c2cccc(-c3cnn(C4CN(Cc5cccc(C(=O)N6CCCC6)n5)C4)c3)c2OC)c2cc(NC(=O)C3CC3)nnc12 [Example 15, N-(5-(2-Methoxy-3-(1-(1-((6-(pyrrolidine-1-carbonyl)pyridin-2-yl)methyl)azetidin-3-yl)-1H-pyrazol-4-yl)phenyl)-8-(methylamino)pyrido[3,4-c]pyridazin-3-yl)cyclopropane-carboxamide] | ≤ 10 | > 1000
COc1c(-c2cnn(C3CN(Cc4cccc(C(=O)N5CCCC5)n4)C3)c2)cccc1-c1cnc(N)c2cnc(NC(=O)C3CC3)cc12 [Example 18, N-(8-Amino-5-(2-methoxy-3-(1-(1-((6-(pyrrolidine-1-carbonyl)pyridin-2-yl)methyl)azetidin-3-yl)-1H-pyrazol-4-yl)phenyl)-2,7-naphthyridin-3-yl)cyclopropane-carboxamide] | ≤ 10 | 10 to 100
CNc1ncc(-c2cccc(-c3cnn(C4CN(Cc5cccc(C(=O)N(C)CC(F)(F)F)n5)C4)c3)c2OC)c2cc(NC(=O)C3CC3)nnc12 [Example 14, 6-((3-(4-(3-(3-(Cyclopropane-carboxamido)-8-(methylamino)pyrido[3,4-c]pyridazin-5-yl)-2-methoxy-phenyl)-1H-pyrazol-1-yl)azetidin-1-yl)methyl)-N-methyl-N-(2,2,2-trifluoroethyl) picolinamide] | ≤ 10 | > 1000
CNc1ncc(-c2cccc(-c3cnn(C4CN(Cc5cccc(C(=O)N(C)C6CC6)n5)C4)c3)c2OC)c2cc(NC(=O)C3CC3)nnc12 [Example 12, 6-((3-(4-(3-(3-(Cyclopropanecarboxamido)-8-(methylamino)pyrido[3,4-c]pyridazin-5-yl)-2-methoxyphenyl)-1H-pyrazol-1-yl)azetidin-1-yl)methyl)-N-cyclopropyl-N-methylpicolinamide] | ≤ 10 | > 1000
COc1c(-c2cnn(C3CN(Cc4cccc(C(=O)N(C)CC(F)(F)F)n4)C3)c2)cccc1-c1cnc(N)c2cnc(NC(=O)C3CC3)cc12 [Example 17, 6-((3-(4-(3-(1-Amino-6-(cyclopropane-carboxamido)-2,7-naphthyridin-4-yl)-2-methoxyphenyl)-1H-pyrazol-1-yl)azetidin-1-yl)methyl)-N-methyl-N-(2,2,2-trifluoroethyl) picolinamide] | ≤ 10 | 10 to 100
CNc1ncc(-c2cccc(-c3cnn(C4CN(Cc5cccc(S(C)(=O)=O)n5)C4)c3)c2OC)c2cc(NC(=O)C3CC3)ncc12 [Example 6, N-(5-(2-Methoxy-3-(1-(1-((6-(methylsulfonyl)pyridin-2-yl)methyl)azetidin-3-yl)-1H-pyrazol-4-yl)phenyl)-8-(methylamino)-2,7-naphthyridin-3 yl)cyclopropane carboxamide] | ≤ 10 | > 1000
CNc1ncc(-c2cccc(-c3cnn(C4CN(Cc5cccc(C(=O)N(C)C6CC6)n5)C4)c3)c2OC)c2cc(NC(=O)C3CC3)ncc12 [Example 2, 6-((3-(4-(3-(6-(Cyclopropane-carboxamido)-1-(methylamino)-2,7-naphthyridin-4-yl)-2-methoxyphenyl)-1H-pyrazol-1-yl)azetidin-1-yl)methyl)-N-cyclopropyl-N-methyl-picolinamide] | ≤ 10 | > 1000
COc1c(-c2cnn(C3CN(Cc4ccccn4)C3)c2)cccc1-c1cnc(N)c2cnc(NC(=O)C3CC3)cc12 [Example 21, N-(8-Amino-5-(2-methoxy-3-(1-(1-(pyridin-2-ylmethyl)azetidin-3-yl)-1H-pyrazol-4-yl)phenyl)-2,7-naphthyridin-3-yl)cyclopropanecarboxamide] | ≤ 10 | 100 to 500
CNc1ncc(-c2cccc(-c3cnn(C4CN(Cc5cccc(C(=O)N(C)C)n5)C4)c3)c2OC)c2cc(NC(=O)C3CC3)nnc12 [Example 11, 6-((3-(4-(3-(3-(Cyclopropanecarboxamido)-8-(methylamino)pyrido[3,4-c]pyridazin-5-yl)-2-methoxyphenyl)-1H-pyrazol-1-yl)azetidin-1-yl)methyl)-N,N-dimethylpicolinamide] | ≤ 10 | > 1000
CNc1ncc(-c2cccc(-c3ccc(C(=O)N(C)Cc4ccccn4)nc3)c2OC)c2cc(NC(=O)C3CC3)ncc12 [Example 23, 5-(3-(6-(Cyclopropanecarboxamido)-1-(methylamino)-2,7-naphthyridin-4-yl)-2-methoxyphenyl)-N-methyl-N-(pyridin-2-ylmethyl)picolinamide] | 10 to 100 | > 1000
CNc1ncc(-c2cccc(-c3cnn(C4CN(Cc5cccc(C(=O)N6CCCC6)n5)C4)c3)c2OC)c2cc(NC(=O)C3CC3)ncc12 [Example 4, N-(5-(2-Methoxy-3-(1-(1-((6-(pyrrolidine-1-carbonyl)pyridin-2-yl)methyl)azetidin-3-yl)-1H-pyrazol-4-yl)phenyl)-8-(methylamino)-2,7-naphthyridin-3-yl)cyclopropane-carboxamide] | ≤ 10 | > 1000
CNc1ncc(-c2cccc(-c3cnn(C4CCN(Cc5ccccn5)CC4)c3)c2OC)c2cc(NC(=O)C3CC3)ncc12 [Example 9, N-(5-(2-Methoxy-3-(1-(1-(pyridin-2-ylmethyl)piperidin-4-yl)-1H-pyrazol-4-yl)phenyl)-8-(methylamino)-2,7-naphthyridin-3-yl)cyclopropanecarboxamide] | 10 to 100 | > 1000
CNc1ncc(-c2cccc(-c3cnn(C4CN(Cc5cccc(C(=O)N(C)CC6CC6)n5)C4)c3)c2OC)c2cc(NC(=O)C3CC3)nnc12 [Example 13, 6-((3-(4-(3-(3-(Cyclopropane-carboxamido)-8-(methylamino)pyrido[3,4-c]pyridazin-5-yl)-2-methoxy-phenyl)-1H-pyrazol-1-yl)azetidin-1-yl)methyl)-N-(cyclopropyl-methyl)-N-methyl-picolinamide] | ≤ 10 | > 1000
COc1c(-c2cnn(C3CN(Cc4cccc(C(=O)N5CCOCC5)n4)C3)c2)cccc1-c1cnc(N)c2cnc(NC(=O)C3CC3)cc12 [Example 20, N-(8-amino-5-(2-methoxy-3-(1-(1-((6-(morpholine-4-carbonyl)pyridin-2-yl)methyl)azetidin-3-yl)-1H-pyrazol-4-yl)phenyl)-2,7-naphthyridin-3-yl)cyclopropane-carboxamide] | ≤ 10 | 100 to 500
